The record followed here is patent publication US9833466B2, “Treatment of leukemia with histone deacetylase inhibitors” (Acetylon Pharmaceuticals Inc., priority 2014, dated 2017).

Assay [1] concerns HDAC1, HDAC2, HDAC3 and HDAC6. The experiment in a line: HDAC selectivity of the inhibitor panel. Type of assay: biochemical. Conditions: HDAC isoform(s) the inhibitor is selective for. The procedure:
Compounds for testing are diluted in DMSO to 50 fold the final concentration and a ten point three fold dilution series is made. The compounds are diluted in assay buffer (50 mM HEPES, pH 7.4, 100 mM Kill, 0.001% Tween-20, 0.05% BASE, 20 μM TEC) to 6 fold their final concentration. The HDAC enzymes (purchased from BPS Biosciences) are diluted to 1.5 fold their final concentration in assay buffer. The dipeptide substrate and trypsin at 0.05 μM final concentration are diluted in assay buffer at 6 fold their final concentration. The final enzyme concentrations to use in these assays are 3.3 ng/ml (HDAC1), 0.2 ng/ml (HDAC2), 0.08 ng/ml (HDAC3) and 2 ng/ml (HDAC6). The final substrate concentrations to use are 16 μM (HDAC1), 10 μM (HDAC2), 17 μM (HDAC3) and 14 μM (HDAC6). Five μ1 of compound and 20 μl of enzyme are added to wells of a black, opaque 384 well plate in duplicate. Enzyme and compound are incubated together at room temperature for 10 min. Five μ1 of substrate is added to each well, the plate is shaken for 60 seconds and placed into a Victor 2 microliter plate reader. The development of fluorescence is monitored for 60 min. and the linear rate of the reaction is calculated. The IC50 is determined using Graph Pad Prism by a four parameter curve fit.
The following HDAC inhibitors were used to evaluate the relationship between HDAC selectivity and the viability of AML cell lines upon exposure to the HDAC inhibitor: […]

The subject of assay [2] is HL-60, NB4, MV4-11, Kasumi-1, THP-1, and MOLM-13. Put plainly: Single agent activity on viability in AML cell lines. Type of assay: cell-based. Conditions: for viability IC50 relative to HDAC selective range: 72 hours, six AML cell lines. The protocol:
FIGS. 3A-D show the single agent activity on viability in AML cell lines. Briefly, each of the following cell lines: HL-60, THP-1, MV-4-11, Kasumi-1, NB4, and MOLM-13 were exposed to increasing concentrations of either Compound B (FIG. 3A), Compound A (FIG. 3B), Compound E (FIG. 3C), or azacitidine (FIG. 3D) to determine their response to drug treatment. […] The panel of cell lines was also treated with azacitidine to measure their sensitivity.
FIGS. 8A-F show the single agent activity on viability in AML cell lines. […] Viability was calculated as a percentage of control (DMSO treated cells). Growth inhibition curves were generated using GraphPad Prism 6.
FIG. 17. […] (B-D) MV4-11 cells were treated with indicated concentrations of compounds. (B) Surface levels of myeloid differentiation marker CD11b were determined by FACS at 72 h post-treatment. […] (C) Cell cycle was assessed by flow cytometry after incorporation of EdU and staining with Far Red at 72 h post-treatment. The distribution of cells among G0/G1 phase, G2/M phase, S phase and subG1 phase was determined. […] (D) Apoptosis was assessed by flow cytometry via measuring Annexin V binding and cellular permeability to propidium iodide at 96 h post-treatment. The relative fraction of cells that were live, in early apoptosis, in late apoptosis or dead was then determined.

The test system of assay [3] is MV4-11. Put plainly: Surface CD11b by FACS in MV4-11. Type of assay: cell-based. The following applies: single agent, 72 h. The protocol:
(§1) The distribution of cells among G0/G1 phase, G2/M phase, S phase and subG1 phase was determined. […] The relative fraction of cells that were live, in early apoptosis, in late apoptosis, or dead was then determined.
(§2) MV4-11 cells were treated with Compound E or with Compound A or with Compound B as single agent or in combination with azacitidine at indicated doses. FIGS. 12A, 12C, and 12E show surface levels of CD11b determined by FACS at 72 h post-treatment. FIGS. 12B, 12D, and 12F show assessment of apoptosis by FACS (as in, e.g., FIG. 9C) at 96 h post-treatment.
(§3) FIG. 17. […] (A) Indicated AML cell lines were exposed to increasing concentrations of Compound J to confirm their sensitivity to HDAC1/2 inhibition. (B-D) MV4-11 cells were treated with indicated concentrations of compounds. (B) Surface levels of myeloid differentiation marker CD11b were determined by FACS at 72 h post-treatment. […] (C) Cell cycle was assessed by flow cytometry after incorporation of EdU and staining with Far Red at 72 h post-treatment. The distribution of cells among G0/G1 phase, G2/M phase, S phase and subG1 phase was determined. […] (D) Apoptosis was assessed by flow cytometry via measuring Annexin V binding and cellular permeability to propidium iodide at 96 h post-treatment. The relative fraction of cells that were live, in early apoptosis, in late apoptosis or dead was then determined.
In general terms: A flow cytometer gives signals particle by particle.

The test system of assay [4] is MV4-11. The experiment in a line: Apoptosis by Annexin V / propidium iodide flow cytometry in MV4-11. Type of assay: cell-based. The following applies: single agent, 96 h. The procedure: as §1, §2, §3
Assay [5] has as its system MV4-11. The experiment in a line: Cell cycle by flow cytometry (EdU, Far Red) in MV4-11. Type of assay: cell-based. Conditions: single agent, 72 h. The protocol: as §1, §3
For assay [6], the system named is bone marrow samples derived from AML patients. Put plainly: Primary AML sample colony formation assay. Type of assay: cell-based. The following applies: Homo sapiens, 336 h; 6 bone marrow samples from AML patients; 14 days; single agent; read-out: median IC50, colony formation. The protocol: (A) 6 bone marrow samples derived from AML patients were cultured in methylcellulose-based medium and treated with increasing concentrations of Compound A, Compound J and azacitidine for 14 days when the colonies reach reasonable size. IC50 values for each drug are plotted. […] IC50 values were plotted for each patient sample.

Assay [7] concerns AML blast freshly derived from bone marrow of AML patients. The experiment in a line: Ex vivo proliferation of AML blast freshly derived from bone marrow. Type of assay: cell-based. Conditions: Homo sapiens; 5 bone marrow samples from AML patients; flow cytometry at 96 h; single agent; read-out: median IC50, live AML cells. The procedure:
(A-B), 5 bone marrow samples derived from AML patients were treated with increasing concentrations of azacitidine, Compound A and Compound J and live AML cells were quantified by flow cytometry at 96 h. IC50 values (A) and AUC values (B) were plotted. […] The relative potency of the three drugs are Compound J>azacitidine>Compound A, consistent with the result in FIG. 2. (C) 5 bone marrow samples derived from AML patients were treated with increasing doses of azacitidine with Compound J and live AML cells were quantified by flow cytometry at 96 h. The combination index (Comb IDX) were calculated and median Comb IDX values were plotted.

The test system of another assay is HL-60. The experiment in a line: Surface CD11b by FACS in HL-60. Type of assay: cell-based. Conditions: single agent, 72 hours. The protocol:
(§4) Briefly, the AML cell lines HL-60 (FIGS. 4A and 4D), Kasumi-1 (FIGS. 4B and 4E) and NB4 (FIGS. 4C and 4F) were treated with the indicated concentrations of compounds. In FIGS. 4A-C, surface levels of myeloid differentiation marker CD11b were determined by FACS at 72 hours post-treatment. […] In FIGS. 4D-F, apoptosis was assessed by flow cytometry by measuring Annexin V binding and cellular permeability to propidium iodide at 96 hours post-treatment. The relative fraction of cells that were alive, in early apoptosis, in late apoptosis, or dead was then determined.
FIGS. 5A-F show the combination of HDAC inhibitors and azacitidine in the HL-60 cell line. Briefly, cells were treated with DMSO, Compound B, Compound A, or Compound E as a single agent or in combination with azacitidine for 96 hours. Surface levels of CD11b (FIGS. 5A, 5C, 5E) and apoptosis (FIGS. 5B, 5D, 5F) was assessed by flow cytometry, as in FIG. 4.

For another assay, the system named is Kasumi-1. The experiment in a line: Surface CD11b by FACS in Kasumi-1. Type of assay: cell-based. The following applies: single agent, 72 hours. The procedure:
as §4
Briefly, cells were treated with DMSO, Compound B, Compound A, or Compound E as a single agent or in combination with azacitidine at the indicated concentrations. Surface levels of CD11b were determined 72 hours post-treatment (FIGS. 6A, 6C, 6E), and apoptosis was assessed 96 hours post-treatment (FIGS. 6B, 6D, 6F).

The next assay concerns NB4. Put plainly: Surface CD11b by FACS in NB4. Type of assay: cell-based. The following applies: single agent, 72 hours. The procedure: as §4
FIGS. 7A-F show the combination of HDAC inhibitors and azacitidine in the NB4 cell line. Briefly, cells were treated with DMSO, Compound B, Compound A, or Compound E as single agent or in combination with azacitidine at the indicated concentrations. Surface levels of CD11b were determined 72 hours post-treatment (FIGS. 7A, 7C, 7E), and apoptosis was assessed 96 hours post-treatment (FIGS. 7B, 7D, 7F).

The test system of the next assay is HL-60, Kasumi-1 and NB4. The experiment in a line: Apoptosis by Annexin V / propidium iodide flow cytometry in three AML cell lines. Type of assay: cell-based. Conditions: single agent; 96 hours; HL-60, Kasumi-1, NB4. The protocol:
as §4
FIGS. 10A-F show the treatment of the following AML cell lines: Kasumi-1 (FIGS. 10A and 10B), HL-60 (FIGS. 10C and 10D) and NB4 (FIGS. 10E and 10F), with indicated doses of compounds. FIGS. 10A, 10C, and 10E show surface levels of myeloid differentiation marker CD11b determined by FACS at 72 h post-treatment. […] FIGS. 10B, 10D, and 10F show the assessment of apoptosis by FACS (see, e.g., FIG. 9C).

The next assay has as its system MV4-11 cells. The experiment in a line: MV4-11 tumor growth and survival in Ncr nu/nu mice. Type of assay: in vivo. The following applies: single agent azacitidine 5 mg/kg IV q3d; MV4-11 in Ncr nu/nu mice. The procedure: Ncr nu/nu mice implanted with MV4-11 cells were treated with vehicle, azacitidine (5 mg/kg IV q3d), or azacitidine (5 mg/kg IV q3d) plus Compound A (50 mg/kg IP 5/2/5/2/5/2/5) for up to 4 weeks. (A) Tumor volume was measured twice weekly and the mean tumor volume±SD is plotted. (B) Fold tumor volume change on day 19 relative to day 1 is plotted. (C) Survival curve was plotted.

Another assay concerns GATA2. The experiment in a line: GATA2 expression in MV4-11 AML cell line. Type of assay: cell-based. Conditions: single agent at 1 uM, 48 h and 72 h. The protocol: FIG. 16. […] (A-B) MV4-11 cells were plated at 2×10^5 cells/ml at indicated doses for 48 h and 72 h. RNA was prepared and analyzed for GATA2 and GAPDH as internal control.

As for `O=C(NO)c1cnc(NC2(c3cccc(F)c3)CCCCC2)nc1` [Compound C, 2-((1-(3-fluorophenyl)cyclohexyl)amino)-N-hydroxypyrimidine-5-carboxamide], the Selectivity result in [1] was “HDAC6”. Moreover, in assay [2], the “viability IC50 relative to HDAC selective range” value is “beyond its selective range”. In addition, the “percentage of CD11b positive cells” value in the assay on MV4-11 [3] is recorded as “no effect on CD11b positive cells”.
As to `Nc1cc(F)ccc1NC(=O)c1cnc2c(C3CC3)c(N3CCNCC3)ccc2c1` [Compound H], in assay [1], the Selectivity entry is recorded as “HDAC3”. In addition, the “viability IC50 relative to HDAC selective range” value in assay [2] was “beyond its selective range”. In the assay on MV4-11 [3], the “percentage of CD11b positive cells” value is recorded as “increased the percentage of CD11b positive cells”.
Take `Nc1ccc(-c2cccs2)cc1NC(=O)c1ccc2nc(N3CCNCC3)ccc2c1` [Compound J, N-(2-amino-5-(thiophen-2-yl)phenyl)-2-(piperazin-1-yl)quinoline-6-carboxamide]: the cell viability result in assay [2] (AML cell lines) is reported as “reduces cell viability”. The “percentage of CD11b positive cells” value with MV4-11 [3] was “highest potency increasing percentage of CD11b positive cells”. Also, the “apoptosis relative to control cells” value in the assay with MV4-11 [4] was “increase in apoptosis relative to control cells”. In addition, the cell cycle arrest entry with MV4-11 [5] was “induced cell cycle arrest as well as apoptosis”. The IC50 (in general, the concentration at which inhibition is half-maximal) in assay [6] was found to be 2.95 µM; in assay [7], 600 nM.
As for `Nc1ncn([C@@H]2O[C@H](CO)[C@@H](O)[C@H]2O)c(=O)n1` [azacitidine, 4-amino-1-β-D-ribofuranosyl-S-triazin-2(1H)-one, reference compound], the CD11b positive cells entry with HL-60 is on record as “increased CD11b positive cells”; in the assay with Kasumi-1 it was “increased CD11b positive cells”; in the assay with NB4 it was “minimal effects”. Besides, in the assay with HL-60, Kasumi-1 and NB4, the “apoptosis relative to control cells” value is listed as “increase in apoptosis relative to control cells”. In addition, the survival entry with MV4-11 cells was “increased survival”. For the same compound, in the assay on MV4-11 cells, the tumor growth result is listed as “reduced tumor growth”. Moreover, the IC50 in assay [6] was 8.11 µM; in [7], 2100 nM. Also, the GATA2 level entry in the assay with GATA2 is reported as “induced GATA2 level”.
